# Results published in US5831115A, “Inhibitors of squalene synthase and protein farnesyltransferase” (Abbott Laboratories, priority 1996, dated 1998).
# Target: T1, Rat liver microsomal squalene synthase (Rattus norvegicus, UniProt Q02769)
# T1 construct: Rat liver microsomes, the source of enzyme, were prepared; from tissue; host or cells: rat liver microsomes
# T1 sequence (Q02769 1-416): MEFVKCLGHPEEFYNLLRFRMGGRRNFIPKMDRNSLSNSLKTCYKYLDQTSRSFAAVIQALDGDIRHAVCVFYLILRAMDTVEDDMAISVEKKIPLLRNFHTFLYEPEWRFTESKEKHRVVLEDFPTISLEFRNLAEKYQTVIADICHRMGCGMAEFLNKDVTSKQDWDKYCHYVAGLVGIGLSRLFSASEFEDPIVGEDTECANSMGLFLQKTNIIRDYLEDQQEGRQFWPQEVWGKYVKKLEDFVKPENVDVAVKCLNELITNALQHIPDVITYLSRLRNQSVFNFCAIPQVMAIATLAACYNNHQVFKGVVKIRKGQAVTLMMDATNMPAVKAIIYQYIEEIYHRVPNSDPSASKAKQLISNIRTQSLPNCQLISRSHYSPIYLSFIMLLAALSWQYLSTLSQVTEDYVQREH
# Experiment: In vitro Inhibition of Squalene Synthase (rat liver microsomal, radioactive farnesyl diphosphate substrate)
# Type: biochemical
# Conditions: 0.15 μM (footnote *); rat liver microsomes
row,SMILES,inhibition at 0.15 µM
1,"CC(NC(=O)C1C(C(=O)O)C(C(=O)O)C1C(=O)O)C(Cc1ccc(Cl)cc1)c1ccc(-c2ccccc2)cc1 [Example 29, (1α,2α,3α,4α)-4-[N-{(2S,3R)-4-(4-chlorophenyl)-3-(4-biphenylyl)-2-butyl}aminocarbonyl]cyclobutane-1,2,3-tricarboxylic acid]",81%

# Target: T2, Rat brain protein farnesyltransferase (Rattus norvegicus, UniProt Q02293+Q04631)
# T2 construct: Rat brain protein farnesyltransferase activity was measured; from tissue; host or cells: rat brain; partially purified by steps one through three of Reiss et al., Cell 62:81-88 (1990)
# Experiment: In vitro Inhibition of Protein Farnesyltransferase (scintillation proximity assay, biotin-K Ras B fragment)
# Type: biochemical
# Conditions: rat brain enzyme
# Procedure: In vitro inhibition of protein farnesyltransferase may be measured by the following procedure. (Procedures for determination of the inhibition of farnesylation of the oncogene protein Ras are described by Goldstein, et al., J. Biol. Chem., 266:15575-15578 (1991) and by Singh in U.S. Pat. No. 5,245,061 both of which are incorporated herein by reference.)
# Rat brain protein farnesyltransferase activity was measured using an Amersham Life Science commercial scintillation proximity assay kit and substituting a biotin-K Ras B fragment (biotin-Lys-Lys-Ser-Lys-Thr-Lys-Cys-Val-lle-Met-CO2 H), 0.1 μM final concentration, for the biotin-lamin substrate provided by Amersham. The enzyme was purified according to Reiss, Y., et al., Cell, 62:81-88 (1990), utilizing steps one through three. The specific activity of the enzyme was approximately 10 nmol substrate farnesylated/mg enzyme/hour. […]
row,SMILES,inhibition at 1 µM
1,"COC(=O)[C@H]1[C@@H](C(=O)O)[C@H](C(=O)N(Cc2ccccc2)Cc2ccc(Oc3ccccc3)cc2)[C@@H]1C(=O)O (relative stereo) [Example 8, (1α,2β,3β,4α)-1-[N-Benzyl-N-(4-phenoxybenzyl)aminocarbonyl]-3-(methyloxycarbonyl)cyclobutane-2,4-dicarboxylic acid]",79%
2,"O=C(O)[C@@H]1[C@H](C(=O)O)[C@@H](C(=O)O)[C@H]1C(=O)N(Cc1ccccc1)Cc1ccc(Oc2ccccc2)cc1 (relative stereo) [Example 4, (1α,2β,3β,4α)-1-[N-Benzyl-N-(4-phenoxybenzyl)aminocarbonyl]cyclobutane-2,3,4-tricarboxylic acid]",99%
3,"CC(Cc1ccccc1)C(O)CCCN(Cc1ccccc1)C(=O)C1C(C(=O)O)C(C(=O)O)C1C(=O)O (stereo not drawn) [Example 1, (1α,2β,3β,4α)-1-[N-Benzyl-N-{(4S*,5S*)-(4-hydroxy-5-methyl)-6-phenylhexyl}aminocarbonyl]cyclobutane-2,3,4-tricarboxylic acid]",92%
4,"O=C(OCc1ccccc1)[C@@H]1[C@H](C(=O)O)[C@@H](C(=O)OCc2ccccc2)[C@H]1C(=O)N(Cc1ccccc1)Cc1ccc(Oc2ccccc2)cc1 (relative stereo) [Example 3, (1α,2β,3β,4α)-1-[N-Benzyl-N-(4-phenoxybenzyl)aminocarbonyl]-2,4-di(benzyloxycarbonyl)cyclobutane-3-carboxylic acid]",45%
5,"O=C(O)[C@@H]1[C@H](C(=O)O)[C@@H](C(=O)O)[C@H]1C(=O)N(Cc1ccc(Oc2ccccc2)cc1)Cc1cccs1 (relative stereo) [Example 6, (1α,2β,3β,4α)-1-[N-(Thien-2-ylmethyl)-N-(4-phenoxybenzyl)aminocarbonyl]cyclobutane-2,3,4-tricarboxylic acid]",89%
6,"O=C(OCc1ccccc1)[C@@H]1[C@H](C(=O)O)[C@@H](C(=O)OCc2ccccc2)[C@H]1C(=O)N(Cc1ccc(Oc2ccccc2)cc1)Cc1cccs1 (relative stereo) [Example 5, (1α,2β,3β,4α)-1-[N-(Thien-2-ylmethyl)-N-(4-phenoxybenzyl)aminocarbonyl]-2,4-di(benzyloxycarbonyl)cyclobutane-3-carboxylic acid]",21%

# Target: T1, Rat liver microsomal squalene synthase
# Experiment: In vitro Inhibition of Squalene Synthase (rat liver microsomal, radioactive farnesyl diphosphate substrate)
# Type: biochemical
# Conditions: rat liver microsomes
# Procedure: In vitro inhibition of squalene synthase may be measured by the following procedure.
# Rat liver microsomal squalene synthase activity was measured using radioactive farnesyl diphosphate as a substrate and quantitating squalene synthesis by counting the radioactive squalene formed.
# Rat liver microsomes, the source of enzyme, were prepared according to the method of Gillies, P. J., et al., Exp. Molc. Pathol. 44: 329-339 (1986), a modification of the procedure of Erickson, S. K., and Cooper, A. D., Metabolism, 29: 991-996 (1980). Approximately 30 μg of microsomal protein was incubated for 10 minutes at 37° C. with […] of ^3 H-farnesyl diphosphate, 49 mCi/mmol, and test compound in the presence of squalene (2 μL), Mg++, KF, reduced B-nicotinamide adenine dinucleotide phosphate, dithiothreitol, and K2 PO4, pH 7.35, in a total volume of 200 μL. Oxygen was excluded from the closed incubation tube by degassing with nitrogen. The reaction was terminated by the addition of ethanolic KOH and after degassing with N2, the microsomal membranes were solubilized by heating at 60° C. for 30 minutes. The squalene was extracted into hexane, and the squalene was separated from all other radioactive molcules by passage over an activated alumina column. The solution was collected in scintillation vials, evaporated to dryness, liquid scintillation fluid was added, and the radioactivity was determined in a liquid scintillation counter. The percent inhibition at a dose of 1 μM compared to controls with no test compound was determined.
SMILES,inhibition at 1 µM,% Inhibition at 1 μM
O=C(O)[C@H]1[C@H](C(=O)O)[C@H](C(=O)O)[C@H]1C(=O)N(Cc1ccc(Oc2ccccc2)cc1)Cc1ccc(Cl)c(Cl)c1 (relative stereo) [Example 46],53%,
"C[C@H](NC(=O)[C@H]1[C@H](C(=O)O)[C@H](C(=O)O)[C@H]1C(=O)O)[C@@H](Cc1ccc(Cl)c(Cl)c1)OC(=O)c1ccc2ccccc2c1 [Example 25, (1S,2S,3S,4R)-4-[N-{(2S,3R)-4-(3,4-Dichlorophenyl)-3-(2-naphthoyloxy)-2-butyl}aminocarbonyl]cyclobutane-1,2,3-tricarboxylic acid]",35%,
COC(=O)[C@H]1[C@@H](C(=O)O)[C@H](C(=O)O)[C@@H]1C(=O)N[C@@H](C)[C@@H](Cc1ccc(Cl)c(Cl)c1)OC(=O)c1ccc2ccccc2c1 [Example 24],27%,
"C[C@H](NC(=O)C1CCC1C(=O)O)[C@H](Cc1ccc(Cl)cc1)c1ccc(-c2ccccc2)cc1 (stereo partly drawn) [Example 37, 2-[N-{(2S,3R)-4-(4-Chlorophenyl)-3-(4-biphenylyl)-2-butyl}aminocarbonyl]cyclobutane-1-carboxylic acid]",90%,
"O=C(O)[C@H]1[C@H](C(=O)O)[C@H](C(=O)O)[C@H]1C(=O)N(CCCCCCCCCCc1ccccc1)Cc1ccccc1 (relative stereo) [Example 35, (1β,2β,3α,4α)-4-[N-Benzyl-N-(10-phenyldecyl)aminocarbonyl]cyclobutane-1,2,3-tricarboxylic acid]",47%,
"COC(=O)[C@@H]1[C@@H](C(=O)O)[C@@H](C(=O)O)[C@@H]1C(=O)N[C@@H](C)[C@@H](Cc1ccc(Cl)c(Cl)c1)OC(=O)c1ccc2ccccc2c1 [Example 27, (1S,2S,3S,4S)-3-Methoxycarbonyl-4-[N-{(2S,3R)-4-(3,4-dichlorophenyl)-3-(2-naphthoyloxy)-2-butyl}aminocarbonyl]cyclobutane-1,2-dicarboxylic acid]",98%,
"CC(NC(=O)[C@H]1C[C@H](C(=O)O)[C@H]1C(=O)O)C(Cc1ccc(Cl)cc1)c1ccc(-c2ccccc2)cc1 (relative stereo) [Example 34, (1β,2α,3α)-3-[N-{(2S,3R)-4-(4-chlorophenyl)-3-(4-biphenylyl)-2-butyl}aminocarbonyl]cyclobutane-1,2-dicarboxylic acid]",94%,
"COC(=O)[C@@H]1[C@H](C(=O)O)[C@@H](C(=O)O)[C@H]1C(=O)N[C@@H](C)[C@@H](Cc1ccc(Cl)c(Cl)c1)OC(=O)c1ccc2ccccc2c1 [Example 23, (1S,2R,3S,4R)-3-Methoxycarbonyl-4-[N-{(2S,3R)-4-(3,4-dichlorophenyl)-3-(2-naphthoyloxy)-2-butyl}aminocarbonyl]cyclobutane-1,2-dicarboxylic acid]",98%,
"CCCN(CCCC=CC(C)CCCc1ccccc1)C(=O)C1C(C(=O)O)C(C(=O)O)C1C(=O)O [Example 44, (1α,2α,3β,4β)-4-{N-Propyl-N-[(R)-6-methyl-9-phenyl-(E)-4-nonenyl]aminocarbonyl}cyclobutane-1,2,3-tricarboxylic acid]",25%,
"C[C@H](NC(=O)C1CC(CO)C1C(=O)[O-])[C@H](Cc1ccc(Cl)cc1)c1ccc(-c2ccccc2)cc1.[Na+] (mixture of isomers) [Example 41, (±)-(1α,2β,4α)-2-[N-{(2S,3R)-4-(4-Chlorophenyl)-3-(4-biphenylyl)-2-butyl}aminocarbonyl]-4-hydroxymethylcyclobutane-1-carboxylic acid sodium salt]",,80%
"C[C@H](NC(=O)[C@H]1[C@@H](C(=O)O)[C@H](C(=O)O)[C@@H]1C(=O)O)[C@@H](Cc1ccc(Cl)c(Cl)c1)OC(=O)c1ccc2ccccc2c1 [Example 26, (1R,2R,3R,4S)-4-[N-{(2S,3R)-4-(3,4-Dichlorophenyl)-3-(2-naphthoyloxy)-2-butyl}aminocarbonyl]cyclobutane-1,2,3-tricarboxylic acid]",52%,
"CCCN(CCCC(OC(=O)c1ccc2ccccc2c1)C(C)Cc1ccccc1)C(=O)C1C(C(=O)O)C(C(=O)O)C1C(=O)O (stereo not drawn) [Example 43, (1α,2β,3β,4α)-4-{N-Propyl-N-[(4S*,5S*)-(5-methyl-4-napthoyloxy)-6-phenylhexyl]aminocarbonyl}cyclobutane-1,2,3-tricarboxylic acid]",63%,
"CC(C=CCCCN(Cc1ccccc1)C(=O)C1C(C(=O)O)C(C(=O)O)C1C(=O)O)CCCc1ccccc1 [Example 45, (1α,2α,3β,4β)-4-{N-Benzyl-N-[(R)-6-methyl-9-phenyl-(E)-4-nonenyl]aminocarbonyl}cyclobutane-1,2,3-tricarboxylic acid]",67%,
